In patent US9284307B2, “Macrocyclic serine protease inhibitors” (Idenix Pharmaceuticals LLC, priority 2009, dated 2016):

Columns and labels:
[1] = biological target: T1, HCV NS3-NS4A protease 2a (Hepatitis C virus genotype 2a, UniProt Q99IB8); test: HCV protease assay (HiLyte Fluor TR/QXL 610 FRET peptide), genotype 2a; format: biochemical; conditions: 2-3 nM protease, 60 min at 30° C., read-out: IC50 Against HS3/4A 2a
T1 construct: using 2-3 nM HCV NS3-NS4A protease, which was produced according to the method of Taremi et al; made in house
Description: (§1) Measurement of the inhibitory effect of compounds on HCV protease activity was performed using the HiLyte Fluor™ TR/QXL™ 610 FRET peptide from AnaSpec, Inc. (San Jose, Calif.) under conditions developed in-house using 2-3 nM HCV NS3-NS4A protease, which was produced according to the method of Taremi et al. (Protein Science, 1998, 7, 2143-2149). The compounds were tested at a variety of concentrations in assay buffer containing a final DMSO concentration of 5%. Reactions were allowed to proceed for 60 min at 30° C. and fluorescence measurements were recorded with a PerkinElmer Victor^3 V 1420 Multilabel Counter. The IC50 values were determined from the percent inhibition versus concentration data using a sigmoidal non-linear regression analysis based on four parameters with XLfit 4.1 software.

[2] = system: HCV luciferase-bearing mutant replicon, NS3 R155K, in cured GS4.1 cells; test: Luciferase replicon transient transfection assay, R155K mutant replicon; format: cell-based
Description: (§2) The luciferase replicon transient transfection assay measures the ability of a test compound to inhibit the replication of a transiently-transfected HCV luciferase-bearing wild-type or mutant replicon in cured human hepatoma cells (cured GS4.1). The mutant replicons bear a specific single-site mutation in NS3 that is known to confer resistance to protease inhibitors currently in development. The inhibition of HCV replication was measured by quantification of luciferase protein expression. This assay has been validated using a panel of replicons bearing known protease inhibitor resistance mutations and their respective reference compounds. Briefly, subconfluent cured GS4.1 cells in OptiBuffer (ThermoElectron Corp.) were electroporated with 40 μg of wild-type or mutant luciferase-bearing HCV replicon RNA. The cells were then seeded in 96-well opaque white plates at 2.4×10^4 cells/well in 150 μL/well and incubated for 4 hours at 37° C./5% CO2. […] The plates were agitated on a rotating platform at room temperature for 3 minutes and read in a Victor^3V microplate reader (Perkin-Elmer) using a 700 nm cut-off filter with a 1 second read time. EC50 values were calculated from dose response curves from the resulting best-fit equations determined by Microsoft Excel and XLfit 4.1 software.

[3] = biological target: T2, HCV NS3-NS4A protease 1a (Hepatitis C virus genotype 1a, UniProt P27958); test: HCV protease assay (HiLyte Fluor TR/QXL 610 FRET peptide), genotype 1a; format: biochemical; conditions: 2-3 nM protease, 60 min at 30° C., read-out: IC50 Against HS3/4A 1a
T2 construct: using 2-3 nM HCV NS3-NS4A protease, which was produced according to the method of Taremi et al; made in house
Description: as §1

[4] = system: HCV luciferase-bearing mutant replicon, NS3 A156S, in cured GS4.1 cells; test: Luciferase replicon transient transfection assay, A156S mutant replicon; format: cell-based
Description: as §2

[5] = biological target: T3, HCV NS3-NS4A protease (Hepatitis C virus genotype 1b, UniProt Q9WMX2); test: HCV protease assay (SensoLyte 620 HCV Protease Assay kit); format: biochemical; conditions: 1.2 nM HCV NS3-NS4A protease, 60 min at room temperature
T3 construct: using 1.2 nM HCV NS3-NS4A protease, which was obtained according to Taremi et al; made in house
Description: Measurement of the inhibitory effect of compounds on HCV protease activity was performed with the SensoLyte™ 620 HCV Protease Assay kit from AnaSpec, Inc. (San Jose, Calif.) under conditions described by the supplier using 1.2 nM HCV NS3-NS4A protease, which was obtained according to Taremi et al. (Protein Science, 1998, 7, 2143-2149). The compounds were tested at a variety of concentrations in assay buffer containing a final DMSO concentration of 5%. Reactions were allowed to proceed for 60 min at room temperature and fluorescence measurements were recorded with a Tecan Infinity Spectrofluorimeter. The IC50 values were determined from the percent inhibition versus concentration data using a sigmoidal non-linear regression analysis based on four parameters with Tecan Magellan software.

[6] = biological target: T4, HCV NS3-NS4A protease 1b (Hepatitis C virus genotype 1b, UniProt Q9WMX2); test: HCV protease assay (HiLyte Fluor TR/QXL 610 FRET peptide), genotype 1b; format: biochemical; conditions: 2-3 nM protease, 60 min at 30° C., read-out: IC50 Against HS3/4A 1b
T4 construct: using 2-3 nM HCV NS3-NS4A protease, which was produced according to the method of Taremi et al; made in house
Description: as §1

[7] = system: HCV Con1 subgenomic replicon in Huh-7 cells (GS4.1 cells); test: HCV replicon assay (NS4A ELISA, GS4.1 cells); format: cell-based; conditions: Hepatitis C virus, 72 hr
Description: Huh-7 cells containing HCV Con1 subgenomic replicon (GS4.1 cells) were grown in Dulbecco's Modified Eagle Medium (DMEM) supplemented with 10% fetal bovine serum (FBS), 2 mM L-glutamine, 110 mg/L sodium pyruvate, 1× non-essential amino acids, 100 U/mL penicillin-streptomycin, and 0.5 mg/mL G418 (Invitrogen). For dose-response testing, the cells were seeded in 96-well plates at 7.5×10^3 cells/well in a volume of 50 μL, and incubated at 37° C./5% CO2. Three hours after plating, 50 μL of ten 2-fold serial dilutions of compounds (highest concentration, 75 μM) were added, and cell cultures were incubated at 37° C./5% CO2 in the presence of 0.5% DMSO. Alternatively, compounds were tested at a single concentration of 15 μM. In all cases, Huh-7 cells lacking the HCV replicon served as negative control. The cells were incubated in the presence of compounds for 72 hr after which they were monitored for expression of the NS4A protein by enzyme-linked immunosorbent assay (ELISA). […] The reaction was stopped after 30 min with 2 N H2SO4, and absorbance was read at 492 nm using Sunrise Tecan spectrophotometer. EC50 values were determined from the % inhibition versus concentration data using a sigmoidal non-linear regression analysis based on four parameters with Tecan Magellan software.

COc1ccc2c(O[C@H]3CC[C@H]4C(=O)N(C)CCCC/C=C\[C@@H]5C[C@@]5(C(=O)NS(=O)(=O)C5(C)CC5)NC(=O)[C@@H]4C3)cc(-c3nc(C(F)(F)F)cs3)nc2c1C [Compound 51]
IC50 [1]: < 1000 nM
Fold Change, R155K replicon ([2]; EC50 fold change, R155K replicon): 10-20
EC50 ([2]; Hepatitis C virus, 96 h, read-out: EC50(nm), R155K replicon): 5 to 15 nM
IC50 [3]: < 1000 nM
Fold Change, A156S replicon ([4]; EC50 fold change, A156S replicon): 0.2 to 0.6
EC50 ([4]; Hepatitis C virus, 96 h, read-out: EC50(nm), A156S replicon): 0.1 to 0.35 nM
IC50 [5]: < 1000 nM
IC50 [6]: < 1000 nM
EC50 [7]: < 1000 nM
